Results published in ChEMBL document CHEMBL5724696, “Autophagy assay results for EUbOPEN Chemogenomics Library” (2024).

Experiments:
[1] = tested on: U2OS; experiment: (§1) Here: values are normalized to the negative (DMSO; defined as 0% autophagy induction) and positive (250nM Torin1; mTOR inhibitor; defined as maximal inducer of autophagy = 100%) control compounds and represented as % of autophagy induction. […] The impact of autophagy induction on cells is complex and depends on the affected target. As such, the magnitude of a phenotype may not be equally mirrored in the %-value of autophagy induction and vice versa. The dynamics of the induction may indicate the mode of activation: e.g. activation via phosphorylation or a signaling cascade may occur fast, while activation via transcription factors may take considerably longer. […] Of note, treatment concentrations may be sub-optimal for specific compounds, leading to false negative annotations.; format: functional, Homo sapiens; details: Culturing Media DMEM, 1 % Penicillin/Streptomycin, 10% Fetal bovin serum Add-On: No, Screening Media Control DMEM, Screening Media Samples DMEM
[2] = tested on: U2OS; experiment: as §1; format: functional, Homo sapiens; details: Culturing Media DMEM, 1 % Penicillin/Streptomycin, 10% Fetal bovin serum Add-On: No, Screening Media Control DMEM, Screening Media Samples DMEM; remark: listed apart in the source
[3] = Compound Concentration 0.5 uM, Timepoint 12 hours
[4] = Compound Concentration 0.5 uM, Timepoint 24 hours
[5] = Compound Concentration 0.5 uM, Timepoint 36 hours
[6] = Compound Concentration 0.5 uM, Timepoint 60 hours
[7] = Compound Concentration 2 uM, Timepoint 12 hours
[8] = Compound Concentration 2 uM, Timepoint 24 hours
[9] = Compound Concentration 2 uM, Timepoint 36 hours
[10] = Compound Concentration 2 uM, Timepoint 60 hours
[11] = Compound Concentration 10 uM, Timepoint 12 hours
[12] = Compound Concentration 10 uM, Timepoint 24 hours
[13] = Compound Concentration 10 uM, Timepoint 36 hours
[14] = Compound Concentration 10 uM, Timepoint 60 hours

Row | SMILES | autophagy induction [1, 3] [%] | autophagy induction [1, 4] [%] | autophagy induction [1, 5] [%] | autophagy induction [1, 6] [%] | autophagy induction [1, 7] [%] | autophagy induction [1, 8] [%] | autophagy induction [1, 9] [%] | autophagy induction [1, 10] [%] | autophagy induction [1, 11] [%] | autophagy induction [1, 12] [%] | autophagy induction [1, 13] [%] | autophagy induction [1, 14] [%] | autophagy induction [2, 3] [%] | autophagy induction [2, 4] [%] | autophagy induction [2, 5] [%] | autophagy induction [2, 6] [%] | autophagy induction [2, 7] [%] | autophagy induction [2, 8] [%] | autophagy induction [2, 9] [%] | autophagy induction [2, 10] [%] | also measured
1 | Cc1cc(NC(=O)Nc2ccc(N(C)C)cc2)c2cc(F)cc(F)c2n1 | -2.687 | -3.664 | -3.669 | 114.219 | -0.9187 | -2.555 | -1.904 | 114.2 | 1.036 | -2.2709 | 0.4658 | 113.441 | -3.035 | -2.6114 | -4.581 | -2.138 | -10.8002 | -10.6502 | -6.099 | -2.686 | autophagy induction [2, 11]: 2.643%; autophagy induction [2, 12]: 9.654%; autophagy induction [2, 13]: 13.8869%; autophagy induction [2, 14]: 31.5866%
2 | COc1cc(-n2cnc3cc(-c4ccc(Cl)cc4)sc3c2=O)ccc1OCCN1CCCC1 | 4.067 | -3.025 | -2.555 | 114.356 | 0.09165 | 1.732 | 0.6188 | 114.522 | -26.0106 | -13.6231 | -7.579 | 114.809 | -1.171 | 2.823 | 1.029 | -2.152 | -14.2965 | -7.54 | -8.816 | -10.4701 | autophagy induction [2, 11]: 7.721%; autophagy induction [2, 12]: 15.3334%; autophagy induction [2, 13]: 18.9257%; autophagy induction [2, 14]: 17.8082%
3 | COc1ccc(Br)cc1S(=O)(=O)NC(=O)/C=C/c1ccccc1Cc1ccc2ccccc2c1 | 8.106 | 0.9964 | -0.06695 | 114.397 | -1.7757 | -1.309 | -1.876 | 114.114 | -6.0177 | -3.111 | -1.417 | 114.143 | 10.8816 | 4.975 | 5.043 | 1.1971 | -3.861 | -4.459 | -4.477 | -3.627 | autophagy induction [2, 11]: 11.1214%; autophagy induction [2, 12]: -0.228%; autophagy induction [2, 13]: 3.111%; autophagy induction [2, 14]: -1.844%
4 | O=C(O)CC/C=C\C[C@@H]1CO[C@H](c2ccccc2Cl)O[C@@H]1c1ccccc1O | -2.932 | -1.885 | -1.616 | 114.317 | -0.3574 | -1.612 | -1.86 | 114.217 | -0.147 | -2.085 | -2.519 | 114.255 | -1.049 | 2.549 | 1.3825 | -3.206 | -3.826 | -5.258 | 1.68 | -8.886 | autophagy induction [2, 11]: 0.2701%; autophagy induction [2, 12]: -2.3073%; autophagy induction [2, 13]: -0.4123%; autophagy induction [2, 14]: -4.081%
5 | Cc1cc([C@@H](C)Nc2cccc(-c3cc(C)c(C(=O)N[C@@H](C)C(=O)O)c(C)c3)c2)ccc1Cl | -1.358 | -0.4353 | -1.357 | 114.287 | 0.7384 | 3.004 | -0.1787 | 114.309 | 25.7636 | 8.275 | 1.804 | 114.446 | -5.116 | -3.567 | -5.902 | -1.838 | -9.884 | -6.925 | -1.645 | 5.389 | autophagy induction [2, 11]: 8.557%; autophagy induction [2, 12]: 0.1878%; autophagy induction [2, 13]: -1.416%; autophagy induction [2, 14]: -9.482%
6 | Cc1nc(C#Cc2ccnc(Cl)c2)c(C)n1-c1ccc(OC(F)(F)F)cc1 | 6.745 | 0.06808 | -1.509 | 114.498 | 7.139 | -0.173 | -1.142 | 114.204 | 1.1344 | 2.694 | 0.08816 | 114.429 | 6.456 | 5.383 | 5.336 | 1.571 | -2.91 | 2.407 | -0.6644 | -12.3758 | autophagy induction [2, 11]: 2.059%; autophagy induction [2, 12]: 11.3882%; autophagy induction [2, 13]: 11.4393%; autophagy induction [2, 14]: 13.7118%
7 | CCCCN(CC)c1nc(C)nc2c1c(C)cn2-c1c(C)cc(C)cc1C.Cl | 2.677 | -1.508 | -1.584 | 114.355 | 3.96 | -1.673 | -1.59 | 114.358 | -1.788 | -2.669 | -2.565 | 114.561 | 18.6925 | 15.758 | 10.5217 | 0.4484 | 10.9121 | 4.341 | 5.091 | -0.08598 | autophagy induction [2, 11]: 2.112%; autophagy induction [2, 12]: -2.1052%; autophagy induction [2, 13]: 3.327%; autophagy induction [2, 14]: 1.7732%
8 | COc1ccc(/C=C/CCCCOc2ccc(C(=O)c3cccc(C(=O)O)c3)cc2CCC(=O)O)cc1 | -1.627 | -2.76 | -1.525 | 114.261 | 2.991 | -2.166 | -0.5097 | 114.413 | 6.765 | 1.033 | 1.832 | 114.224 | 4.029 | -1.055 | -5.293 | -4.291 | -4.414 | -2.822 | -3.285 | 2.49 | autophagy induction [2, 11]: -13.0779%; autophagy induction [2, 12]: -9.945%; autophagy induction [2, 13]: -0.5172%; autophagy induction [2, 14]: -0.9267%
